From US20250144095A1, “COMPOSITIONS AND METHODS FOR TREATMENT OF CONNECTIVE TISSUE DISORDERS” (The Johns Hopkins University, priority 2022, published 2025)

Legend:
Assay type in all cases: in vivo
[1] = test system: Col3a1^G938D mice; test: Survival drug trial in Col3a1^G938D/+ (vEDS) mice, Kaplan-Meier
Source text: All mice were maintained on a C57BL/6J background (#000664, The Jackson Laboratory). ET1^fl/fl f mice were obtained from RIKEN (RBRC06322). Tie2-Cre mice and Sm22-Cre mice were obtained from the Jackson Laboratory (#004128. #017491). All mice were genotyped according to published protocols.
Restriction enzymes were used to detect the presence or absence of the Col3a1 mutation as previously described. The G938D mutation leads to the gain of a BamHI cut site (R3136S, New England Biolabs). All mice found dead were assessed for cause of death by necropsy, noting in particular hemothorax and hemoperitoneum.
For drug trials in the Col3a1^G938D/+ mice, mice were initiated on medication at weaning and continued until 2 months of age. Cobimetinib (GDC-0973/RO551404, Active Biochem) was dissolved in drinking water and filtered to reach a final concentration of 0.02 g/L giving an estimated dose of 2 mg/kg/day. Ruboxistaurin (LY333531 HCl, Selleck Chemicals) was mixed with powdered food (LabDiet) to give a concentration of 0.1 mg/g giving an estimated dose of 8 mg/kg/day. […]
By design, each treatment trial included contemporaneous control (untreated) mice. […] All p-values calculated by log-rank comparisons (using Prism) are reported as unadjusted p-values, given the interdependence of many of the drug mechanisms. […]

[2] = test system: p-PKC; test: Western blot of p-PKC in proximal descending thoracic aorta of treated Col3a1^G938D mice; details: normalized to β-actin, vs untreated
Experimental: (§1) Protein was extracted using an automatic bead homogenizer in conjunction with a Protein Extraction Kit (Full Moon Biosystems). All protein lysis buffers contained both PhosSTOP and cOmplete™, Mini, EDTA-free Protease Inhibitor Cocktail (Roche). Western blotting was performed using LI-COR buffer and species appropriate secondary antibodies conjugated to IR-dye700 or IRdye-800 (LI-COR Biosciences), according to the manufacturer's guidelines and analyzed using LI-COR Odyssey. The following primary antibodies were used: anti-β-Actin (8H10D10) (Cell Signaling Technology, 3700), anti-phospho ERK1/2 (Cell Signaling Technology, 4370), anti-PKCβ (phospho S660) (Abcam, 75837), anti-Endothelin-1 (TR.ET.48.5) (Thermo Fisher Scientific, MA3005), anti-Endothelin-1 (TR.ET.48.5) (Abcam, 2786).
(§2) pERK and pPKC amounts were normalized to j-actin as opposed to total ERK or total PKC for a variety of practical reasons. First, it is the amount of phosphorylated protein, and not the ratio of phosphorylated to unphosphorylated protein, that drives cellular responses. Second, we are unaware of any pathophysiologic context where the amount of unphosphorylated protein is limiting (i.e. always in excess). […]

[3] = test system: p-ERK1/2; test: Western blot of p-ERK1/2 in proximal descending thoracic aorta of treated Col3a1^G938D mice; details: normalized to β-actin, vs untreated
Experimental: as §1, §2

[4] = test system: Endothelin-1; test: Immunofluorescence of Endothelin-1 in descending thoracic aorta of treated Col3a1^G938D/+ mice; details: descending thoracic aorta of 8-week-old Col3a1^G938D/+ mice, treated from weaning; cobimetinib est. 2 mg/kg/day, ruboxistaurin est. 8 mg/kg/day
Experimental: Mice were euthanized by isoflurane inhalation and the left common iliac artery was transected to allow for drainage. PBS (pH 7.4) and PBS containing 4% paraformaldehyde (PFA) was flushed through the left ventricle. The heart and thoracic aorta were removed en bloc and fixed in 4% PFA overnight at 4° C. Aortas were submitted for paraffin fixation and longitudinal sections 5 micrometers thick were mounted on glass slides and stained with hematoxylin & eosin (HE), Verhoeff-van Giesen (VVG), Masson's Trichrome, or Picrosirius red (PSR). Slides were imaged at 20× and 40× magnification using a Nikon Eclipse E400 microscope. Collagen content was determined by polarized PSR intensity (31) and elastin breaks were counted by a researcher blinded to genotype and treatment arm using only VVG stained sections where elastin breaks were clearly visualized.
For immunofluorescence, slides were incubated in antigen retrieval solution for 1 minute in a pressure cooker. Sections were incubated with 1% BSA for one hour at room temperature. Primary antibodies were diluted at 1:200 in 1% BSA and incubated overnight at 4° C. Three consecutive washes were performed prior to incubation with anti-rabbit secondary antibodies conjugated to Alexa Fluor 488 (Invitrogen A-11039) or anti-mouse secondary antibodies conjugated to Alexa Fluor 594 (Invitrogen R37119) at 1:200 for 1 hour at room temperature. […]

Row | SMILES | effect on survival (in words) ([1]; Col3a1^G938D/+ mice vs untreated, Log-Rank (Mantel-Cox)) | mice surviving to the end of the trial ([1]; vEDS (Col3a1^G938D) mice, drug from weaning (P21), followed 45 days, in food, estimated 100 mg/kg/day, untreated 46%) | p-PKC level in aorta (in words) [2] | p-ERK1/2 level in aorta (in words) [3] | ET1 protein levels in aorta (in words) [4]
1 | COc1ccccc1Oc1c(NS(=O)(=O)c2ccc(C(C)(C)C)cc2)nc(-c2ncccn2)nc1OCCO [bosentan, Bosentan] | moderately but significantly improved survival | 70% | marked downregulation | not p-ERK1/2 | 
2 | O=C(c1ccc(F)c(F)c1Nc1ccc(I)cc1F)N1CC(O)([C@@H]2CCCCN2)C1 [cobimetinib, Cobimetinib] |  |  |  |  | attenuated
3 | CN(C)C[C@@H]1CCn2cc(c3ccccc32)C2=C(C(=O)NC2=O)c2cn(c3ccccc23)CCO1 [ruboxistaurin, Ruboxistaurin] |  |  |  |  | attenuated
